Test results taken from patent US11976066B1 (priority 2023, dated 2024).
In brackets after ≈: the same amount, converted by molar mass. Where two headings read alike, the source gives them in different places.

Test system: Mycobacterium tuberculosis H37Rv
Test: Resazurin Microplate Assay (REMA), anti-tubercular activity, susceptible strain
Format: cell-based
Conditions: 192 h
[1] = H37Rv strain, 8 days incubation at 37° C, Middlebrook 7H9 broth, read-out: MIC Susceptible (H37Rv)

With `CCOC(=O)c1cc(C(=O)c2ccc(Br)cc2)n2ccc(N)cc12` [Compound 3e, Ethyl 7-amino-3-(4-bromobenzoyl)indolizine-1-carboxylate] the MIC [1] was roughly 32 mg/L (≈ 82.6 µM).
`CCOC(=O)c1cc(C(=O)c2ccccc2[N+](=O)[O-])n2ccc(N)cc12` [Compound 3b, Ethyl 7-amino-3-(2-nitrobenzoyl)indolizine-1-carboxylate] gave an MIC [1] of roughly 8 mg/L (≈ 22.6 µM).
In the case of `CCOC(=O)c1cc(C(=O)c2ccc(F)cc2)n2ccc(N)cc12` [Compound 3a, Ethyl 7-amino-3-(4-fluorobenzoyl)indolizine-1-carboxylate], the MIC (read-out: MIC Susceptible (H37Rv), H37Rv strain, 8 days incubation at 37° C, Middlebrook 7H9 broth) is reported as roughly 16 mg/L (≈ 49 µM).
